Our source for the GI50 and TGI values is PubChem BioAssay (NCI).

Molecules are shown by their SMILES. “And” between values parts separate entries of the source, which are not always exact repeats. Equal entries are not always repeated.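 Protocol summary: plate cells (96-well), add compound at 5 concentrations, incubate 48 h, interpolate endpoints linearly. At the GI50, growth is halved. The concentration for full growth arrest is given as TGI.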 Bounds are passed on as bounds.

Test systems include BT-549 breast; MOLT-4 leukemia; SF-295 CNS; NCI-H522 lung; MDA-MB-231 breast; SW-620 colon; OVCAR-5 ovarian; 786-0 renal; SK-MEL-2 melanoma; DU-145 prostate.
Experiment in all cases: NCI anticancer screen, dose series, 48 h

Turning to `O=c1[nH]c(-c2cccc(F)c2)cc2cc(F)ccc12`, the GI50 is 0.737 µM in the test with BT-549 breast; 0.568 µM with MOLT-4 leukemia; 0.305 µM with SF-295 CNS; 0.334 µM in the test on NCI-H522 lung; 2.37 µM in the test on MDA-MB-231 breast; 0.174 µM in the test with SW-620 colon. Besides, the GI50 in the test with OVCAR-5 ovarian was 1.74 µM; with 786-0 renal, 2.87 µM; in the test with SK-MEL-2 melanoma, 0.513 µM; with DU-145 prostate it was 0.507 µM. Moreover, the TGI in the test on BT-549 breast, in the test on MOLT-4 leukemia, in the test on SF-295 CNS, in the test on NCI-H522 lung, in the test on MDA-MB-231 breast and with SW-620 colon was over 100 µM throughout. Moreover, the TGI in the test on OVCAR-5 ovarian, in the test with 786-0 renal, in the test with SK-MEL-2 melanoma and in the test with DU-145 prostate was over 100 µM each time.
Turning to `Cc1cc(C(=O)CSC(=S)SC(C)(C)C)ccc1Cl`, the TGI with BT-549 breast stood at 53.1 µM; with MOLT-4 leukemia, 62.9 µM; in the test on SF-295 CNS, 37.1 µM; in the test with NCI-H522 lung it was 30.3 µM; with MDA-MB-231 breast, 36.4 µM; in the test on SW-620 colon it was 68.3 µM. The TGI in the test on OVCAR-5 ovarian was 43.9 µM; in the test with 786-0 renal it was 74.4 µM; with SK-MEL-2 melanoma, 35 µM; in the test with DU-145 prostate it was over 100 µM.
Regarding `CN(C)CCN1CCC(Cc2ccccc2)CC1`, the GI50 with BT-549 breast, with MOLT-4 leukemia, with SF-295 CNS, with NCI-H522 lung, with MDA-MB-231 breast and in the test with SW-620 colon was over 80 µM throughout. Moreover, the GI50 in the test with OVCAR-5 ovarian, in the test on 786-0 renal, in the test on SK-MEL-2 melanoma and with DU-145 prostate was over 80 µM each time. Further, the TGI with BT-549 breast, with MOLT-4 leukemia, with SF-295 CNS, in the test on NCI-H522 lung, in the test on MDA-MB-231 breast and with SW-620 colon was over 80 µM throughout. In addition, the TGI with OVCAR-5 ovarian, in the test with 786-0 renal, in the test with SK-MEL-2 melanoma and in the test with DU-145 prostate was over 80 µM in each case.
Take `NC(=O)c1cc(I)ccc1NC(=O)/C=C/c1ccccc1`: the GI50 in the test on BT-549 breast was 2.39 µM; in the test on MOLT-4 leukemia it was 0.539 µM; with SF-295 CNS, 0.326 µM; in the test with NCI-H522 lung, 1.07 µM; with MDA-MB-231 breast, 0.769 µM; with SW-620 colon it was 0.48 µM. In addition, the GI50 in the test with OVCAR-5 ovarian was 3.17 µM; with 786-0 renal, 1.32 µM; in the test with SK-MEL-2 melanoma, 2.25 µM; in the test on DU-145 prostate, 0.352 µM. For the same compound, the TGI with BT-549 breast is 27.5 µM; in the test on SF-295 CNS, 3.38 µM; with MDA-MB-231 breast it was over 67.2 µM; in the test with SW-620 colon it was over 100 µM; with OVCAR-5 ovarian it was over 51.8 µM; in the test on 786-0 renal it was over 68.1 µM. In addition, the TGI in the test on SK-MEL-2 melanoma is over 56.6 µM; in the test on DU-145 prostate, 2.97 µM.
As to `NC(=S)N/N=C/c1ncccc1O`, the GI50 was 1.58 µM in the test with BT-549 breast; 1.76 µM with MOLT-4 leukemia; 2.47 µM with SF-295 CNS; 2.44 µM and 1.29 µM in the test on NCI-H522 lung; 3.3 µM in the test on SW-620 colon; 5.21 µM in the test with OVCAR-5 ovarian. For the same compound, the GI50 in the test on 786-0 renal was 0.348 µM; with SK-MEL-2 melanoma it was 21.3 µM; in the test with DU-145 prostate, 1.46 µM and 0.77 µM. Moreover, the TGI in the test on BT-549 breast is over 1000 µM; in the test with MOLT-4 leukemia it was 33.2 µM and 42.7 µM; with SF-295 CNS, 27.1 µM and 3.94 µM; with NCI-H522 lung, > 42.9 µM and 87 µM; with MDA-MB-231 breast, over 1000 µM; in the test on SW-620 colon, over 839 µM. In addition, the TGI was > 82.4 µM and 154 µM in the test with OVCAR-5 ovarian; 20.3 µM and 8.34 µM with 786-0 renal; > 40 µM and 135 µM with SK-MEL-2 melanoma; 17.1 µM and > 114 µM with DU-145 prostate.
Take `COc1cc(/C=C2\CCCCC3=C2N=C2SC(C)=CN2C3c2cc(OC)c(OC)c(OC)c2)cc(OC)c1OC` (configuration not stated): the GI50 is 1.15 µM with BT-549 breast; 0.542 µM in the test on MOLT-4 leukemia; 18 µM with SF-295 CNS; 1.32 µM with NCI-H522 lung; 4.24 µM in the test with MDA-MB-231 breast; over 100 µM in the test with SW-620 colon. Moreover, the GI50 was over 100 µM with OVCAR-5 ovarian, 40.5 µM in the test with 786-0 renal, 9.91 µM with SK-MEL-2 melanoma and over 100 µM in the test with DU-145 prostate. In addition, the TGI in the test with BT-549 breast was over 100 µM; in the test with MOLT-4 leukemia, 78 µM; in the test with SF-295 CNS, over 100 µM; in the test with NCI-H522 lung, over 100 µM; in the test with MDA-MB-231 breast, over 100 µM; in the test with SW-620 colon it was over 100 µM. Moreover, the TGI with OVCAR-5 ovarian, in the test on 786-0 renal, with SK-MEL-2 melanoma and with DU-145 prostate was over 100 µM throughout.
Regarding `CCSc1nc(N=Cc2ccccc2O)c2cn[nH]c2n1`, the GI50 with BT-549 breast was 40.6 µM; in the test on MOLT-4 leukemia it was 52.8 µM; with SF-295 CNS it was 23.9 µM; with NCI-H522 lung it was 48.9 µM; in the test with MDA-MB-231 breast it was 12.7 µM; with SW-620 colon, 38.4 µM. Besides, the GI50 in the test on OVCAR-5 ovarian was 21.1 µM; with 786-0 renal, 41.8 µM; in the test on SK-MEL-2 melanoma, 39.9 µM; in the test on DU-145 prostate, 72.1 µM. Further, the TGI is over 100 µM with BT-549 breast; over 100 µM in the test on MOLT-4 leukemia; 80.2 µM in the test with SF-295 CNS; over 100 µM with NCI-H522 lung; over 100 µM in the test on MDA-MB-231 breast; over 100 µM with SW-620 colon. In addition, the TGI in the test on OVCAR-5 ovarian was 66.9 µM; in the test with 786-0 renal, over 100 µM; with SK-MEL-2 melanoma, over 100 µM; in the test with DU-145 prostate, over 100 µM.
Consider `COC(=O)C1=CN(CC2=CC(=O)C(C)=CC2=O)C=C(C(=O)OC)C1c1ccccc1OC`, for which the GI50 in the test with BT-549 breast was 17.4 µM; in the test with MOLT-4 leukemia, 5.61 µM; in the test on SF-295 CNS, 24.3 µM; with NCI-H522 lung, 23.7 µM; with MDA-MB-231 breast, 9.66 µM; in the test on SW-620 colon it was 18.5 µM. Moreover, the GI50 in the test with OVCAR-5 ovarian is 19.7 µM; with 786-0 renal, 15.1 µM; with SK-MEL-2 melanoma, 45.2 µM; in the test on DU-145 prostate, 16.8 µM. For the same compound, the TGI is 41 µM in the test with BT-549 breast; 14.2 µM in the test with MOLT-4 leukemia; over 55.5 µM with SF-295 CNS; over 64.6 µM in the test on NCI-H522 lung; 28 µM in the test on MDA-MB-231 breast; over 64.9 µM in the test on SW-620 colon. Also, the TGI with OVCAR-5 ovarian was 34.9 µM; with 786-0 renal, 28.9 µM; in the test on SK-MEL-2 melanoma, over 100 µM; in the test on DU-145 prostate it was 31.3 µM.
